From publication PMC6891756, “Synthesis and Biological Evaluation of Novel Aminochalcones as Potential Anticancer and Antimicrobial Agents” (Molecules, 2019)
In brackets after ≈: the same amount, converted by molar mass.

Tests used:
[1] = system: Aspergillus niger DSM1957; test: Microbial growth curve screening, A. niger; format: cell-based; conditions: 0.1% (w/v); for ∆OD A. niger: OD at 560 nm, control 2.14; for Lag-phase A. niger: control 11.0 h
Method: (§1) The antimicrobial screening tests were performed on two strains of bacteria: E. coli ATCC10536 and S. aureus DSM799, strain of yeast C. albicans DSM1386 and three strains of fungi: F. linii KB-F1, A. alternata CBS1526 and A. niger DSM1957. All microorganisms were obtained from the collection of the Faculty of Biotechnology and Food Microbiology, Wrocław University of Environmental and Life Sciences. The bacteria were cultured in nutrient broth (Biocorp, Warsaw, Poland), yeast and fungi in YM medium (3 g yeast extract, 3 g malt extract, 5 g bacteriological peptone and 10 g of glucose dissolved in 1 L of distilled water). The tests were carried out in 100-well microtiter plates. To each well 280 μL of culture medium, 10 μL of microorganism suspension and 10 μL of aminochalcone (1–18) dissolved in dimethyl sulfoxide (3% (w/v)) were added. The final concentration of the tested compound (1–18) was 0.1% (w/v). Each experiment were performed in 3 replications. The optical density of the cell suspension was measured on Bioscreen C (Automated Growth Curve Analysis System Lab System, Vantaa, Finland) at 560 nm automatically, at regular intervals of 30 min for 2–3 days. Cell cultures were maintained at 28 °C on a continuous shaker. To prepare the growth curves for each strain, the mean values of the absorbance in a function of time were used. The resulting antimicrobial activity was expressed as the increase of optical density (ΔOD) and was compared to that of the control cultures in the medium supplemented with dimethyl sulfoxide and also with reference substances: oxytetracycline (against bacteria), cycloheximide (against yeast) and nystatin (against fungi) (Sigma Aldrich).

[2] = system: Staphylococcus aureus DSM799; test: MIC evaluation (broth method), S. aureus; format: cell-based; conditions: 48–72 h, read-out: Minimal inhibitory concentration S. aureus
Method: (§2) Sterile 96-well microtiter plates (Sarstedt) with nutrient broth (for bacteria) (Biocorp) or YM medium (for yeast and filamentous fungi) were inoculated with a standardized cell suspension of bacteria and yeast or fungal spores of 10^5 cell·mL^−1, and supplemented with aminochalcones dissolved in DMSO. […] All analysis were conducted in triplicates. The plates were incubated at 30 °C (bacteria and yeast) or 25 °C (filamentous fungi) for 48–72 h. The results were measured with the Spark® Multimode Microplate Reader (Tecan, Männedorf, Switzerland) at a 560 nm wavelength. The minimal inhibitory concentration was defined as the lowest concentration of a tested compound that completely restricted the growth of the microorganism. In order to verify the obtained results, microbial cultures subjected to each concentration of aminochalcone were inoculated onto nutrient agar or YM plates and incubated as described above. The lack of growth on agar plate was a confirmation of the MIC of the tested compound. The resulting MIC values were compared with the reference substances: oxytetracycline (against bacteria), cycloheximide (against yeast) and nystatin (against fungi) (Sigma Aldrich).

[3] = system: Alternaria alternata CBS1526; test: Microbial growth curve screening, A. alternata; format: cell-based; conditions: 0.1% (w/v); for ∆OD A. alternata: OD at 560 nm, control 1.86; for Lag-phase A. alternata: control 16.5 h
Method: as §1

Candida albicans DSM1386 [4] = test: MIC evaluation (broth method), C. albicans; format: cell-based; conditions: DSM1386, broth method, 48–72 h, read-out: Minimal inhibitory concentration C. albicans
Method: as §2

[5] = system: Escherichia coli ATCC10536; test: MIC evaluation (broth method), E. coli; format: cell-based; conditions: 48–72 h, read-out: Minimal inhibitory concentration E. coli
Method: as §2

[6] = system: Escherichia coli ATCC10536; test: Microbial growth curve screening, E. coli; format: cell-based; conditions: 0.1% (w/v), OD at 560 nm, control 1.61
Method: as §1

Fusarium linii KB-F1 [7] = test: Microbial growth curve screening, F. linii; format: cell-based; conditions: 0.1% (w/v); for ∆OD F. linii: OD at 560 nm, control 1.95; for Lag-phase F. linii: control 13.5 h
Method: as §1

[8] = system: Staphylococcus aureus DSM799; test: Microbial growth curve screening, S. aureus; format: cell-based; conditions: 0.1% (w/v); for ∆OD S. aureus: OD at 560 nm, control 1.67
Method: as §1

LS180 = test: SRB antiproliferative assay, LS180; format: cell-based, human; conditions: Homo sapiens, LS180, 48 h, 1–100 µg·mL^−1, ND = not detected in the tested concentration range
Method: (§3) Anticancer activity was evaluated using the sulforhodamine B assay (SRB) on four different human colon cancer cell lines: HT-29, LS180, LoVo and LoVo/DX and green monkey kidney fibroblasts COS7 (ATCC, Manassas, VA, USA). Cell lines HT-29 and COS7 were cultured in α-MEM medium (IIET PAS, Wrocław, Poland), LS180 in OptiMEM medium (IIET PAS), LoVo and LoVo/DX in mixture of α-MEM and OptiMEM medium (1:1 (v:v)). Each culture medium was supplemented with 10% fetal bovine serum, 2 mM glutamine, 100 μg·mL^−1 penicillin, 100 μg·mL^−1 streptomycin and 0.25 μg·mL^−1 amphotericin (all supplements purchased from Gibco (Paisley, UK). Cells were incubated at 37 °C, 5% CO2 in HeraCELL 150i incubator (Thermo Fisher Scientific, Waltham, MA, USA).
(§4) For the SRB assay, cells were seeded onto 96-well plates (Sarstedt, Nümbrecht, Germany) at a density of 5·10^3/well and cultured overnight as described above. Then, the growth medium was gently removed and replaced with fresh medium, supplemented with aminochalcone derivatives in the concentration ranging from 1 µg·mL^−1 to 100 µg·mL^−1. All stock solutions were prepared in DMSO at a concentration of 10 mg·mL^−1. Cells were incubated for 48 h and then the SRB assay was performed as described previously. Each experiment was performed in quadruplicate. The final results were reported as the IC50 values calculated for three independent experiments. Cisplatin (Acros Organics, Waltham, MA, USA) and doxorubicin (Fisher BioReagents, Waltham, MA, USA) were used as positive controls of the test.

[9] = SRB assay, normal fibroblasts COS7; format: cell-based, green monkey; conditions: green monkey, COS7 kidney fibroblasts (normal cell line), ND = not detected in the tested concentration range
Method: as §3, §4

LoVo = test: SRB antiproliferative assay, LoVo; format: cell-based, human; conditions: Homo sapiens, LoVo, 48 h, 1–100 µg·mL^−1, ND = not detected in the tested concentration range
Method: as §3, §4

LoVo/DX = test: SRB antiproliferative assay, LoVo/DX; format: cell-based, human; conditions: Homo sapiens, LoVo/DX, 48 h, 1–100 µg·mL^−1, ND = not detected in the tested concentration range
Method: as §3, §4

HT-29 = test: SRB antiproliferative assay, HT-29; format: cell-based, human; conditions: Homo sapiens, HT-29; SRB, 48 h, 1–100 µg·mL^−1; ND = not detected in the tested concentration range
Method: as §3, §4

Candida albicans DSM1386 [10] = test: Microbial growth curve screening, C. albicans; format: cell-based; conditions: 0.1% (w/v); for ∆OD C. albicans: OD at 560 nm, control 1.58; for Lag-phase C. albicans: control 3.0 h
Method: as §1

Fusarium linii KB-F1 [11] = test: MIC evaluation (broth method), F. linii; format: cell-based
Method: as §2

[12] = system: Aspergillus niger DSM1957; test: MIC evaluation (broth method), A. niger; format: cell-based
Method: as §2

[13] = system: Alternaria alternata CBS1526; test: MIC evaluation (broth method), A. alternata; format: cell-based
Method: as §2

Trichophyton rubrum = system: Trichophyton rubrum; design: method as in doi:10.1007/s10600-018-2281-7; conditions: cited from earlier work

| Compound | ∆OD A. niger [1] | Lag-phase A. niger [1] | MIC [2] | ∆OD A. alternata [3] | Lag-phase A. alternata [3] | MIC [5] | ∆OD E. coli [6] | ∆OD F. linii (Fusarium linii KB-F1 [7]) | Lag-phase F. linii (Fusarium linii KB-F1 [7]) | ∆OD S. aureus [8] | IC50 (LS180) | IC50 at 48 h [9] | IC50 (LoVo) | IC50 (LoVo/DX) | IC50 (HT-29) | ∆OD C. albicans (Candida albicans DSM1386 [10]) | Lag-phase C. albicans (Candida albicans DSM1386 [10]) | also measured |
| --- | --- | --- | --- | --- | --- | --- | --- | --- | --- | --- | --- | --- | --- | --- | --- | --- | --- | --- |
| Nc1ccccc1C(=O)/C=C/c1ccc(OCc2ccccc2)cc1 [Compound 13, 2′-Amino-4-benzyloxychalcone] | 0.78 | 21.5 h | 0.25 µg/mL (≈ 0.759 µM) | 0.92 | 13.0 h | 0.25 µg/mL (≈ 0.759 µM) | 0.0 | 0.32 | 16.0 h | 0 | – | – | – | – | – | – | – | MIC (Candida albicans DSM1386 [4]): 0.5 µg/mL (≈ 1.52 µM) |
| COc1cc(/C=C/C(=O)c2ccccc2N)ccc1OCc1ccccc1 [Compound 16, 2′-Amino-4-benzyloxy-3-methoxychalcone] | 0.41 | 40.5 h | 0.5 µg/mL (≈ 1.39 µM) | 0.64 | 8.5 h | 0.5 µg/mL (≈ 1.39 µM) | 0.0 | 0 | – | 0 | 6.64 ± 0.29 µg/mL (≈ 18.5 µM) | 9.02 ± 0.17 µg/mL (≈ 25.1 µM) | 5.77 ± 0.38 µg/mL (≈ 16.1 µM) | 4.59 ± 0.21 µg/mL (≈ 12.8 µM) | 4.85 ± 0.08 µg/mL (≈ 13.5 µM) | 0.66 | 8.5 h | MIC (Fusarium linii KB-F1 [11]; Fusarium, KBF1, 48–72 h, read-out: Minimal inhibitory concentration F. linii): 0.5 µg/mL (≈ 1.39 µM) |
| COc1cc(/C=C/C(=O)c2cccc(N)c2)ccc1OCc1ccccc1 [Compound 17, 3′-Amino-4-benzyloxy-3-methoxychalcone] | – | – | – | – | – | 0.125 µg/mL (≈ 0.348 µM) | 0.0 | 0.24 | 11.0 h | 0.36 | 3.76 ± 0.38 µg/mL (≈ 10.5 µM) | 3.45 ± 0.22 µg/mL (≈ 9.6 µM) | 1.71 ± 0.13 µg/mL (≈ 4.76 µM) | 1.77 ± 0.09 µg/mL (≈ 4.92 µM) | 2.9 ± 0.27 µg/mL (≈ 8.07 µM) | 0.55 | 9.0 h | MIC ([12]; Aspergillus niger, DSM1957, 48–72 h, read-out: Minimal inhibitory concentration A. niger): 1 µg/mL (≈ 2.78 µM); melting point: 38 °C; MIC ([13]; Alternaria alternata, CBS1526, 48–72 h, read-out: Minimal inhibitory concentration A. alternata): 1 µg/mL (≈ 2.78 µM); Lag-phase S. aureus ([8]; control 2.5 h): 33.5 h |
| C[C@@H]1[C@H](O)[C@@H](C)/C=C/C=C/CC/C=C/C=C/C=C/C=C/C(O[C@H]2O[C@H](C)[C@@H](O)[C@H](N)[C@@H]2O)CC2O[C@](O)(CC(O)C(O)CCC(O)CC(O)CC(O)CC(=O)O[C@H]1C)CC(O)C2C(=O)O (some centres unmarked) [Nystatin, reference compound] | 0.74 | 4.5 h | – | 0.0 | – | – | – | 0.13 | 10.0 h | – | – | – | – | – | – | – | – | Minimal inhibitory concentration A. niger ([12]; 48–72 h): 250 µg/mL (≈ 270 µM); Minimal inhibitory concentration A. alternata ([13]; 48–72 h): 1000 µg/mL (≈ 1080 µM); Minimal inhibitory concentration F. linii (Fusarium linii KB-F1 [11]; 48–72 h): 500 µg/mL (≈ 540 µM) |
| OC(Cn1cncn1)(Cn1cncn1)c1ccc(F)cc1F [fluconazole] | – | – | – | – | – | – | – | – | – | – | – | – | – | – | – | – | – | MIC80 Trichophyton rubrum (literature) (Trichophyton rubrum): 0.25 µg/mL (≈ 0.816 µM) |
